In patent US20160318856A1, “Substituted Urea eIF2alpha Kinase Activators” (THE BRIGHAM AND WOMEN'S HOSPITAL, INC., priority 2013, published 2016):
Like-named read-outs stand apart in the source and are kept apart here.

Key:
[1] = system: eIF2α phosphorylation (eIF2•GTP•Met-tRNAi ternary complex; HRI activation); experiment: surrogate dual luciferase eIF2α phosphorylation (ternary complex) assay; assay type: cell-based, human; conditions: for maximal fold induction: Homo sapiens; for C3X: Calculated concentration of compound that will cause three-fold increase in the surrogate eIF2α phosphorylation assay: Table 7
From the text: The dual luciferase expression vector and other plasmids used for these studies were previously described (see, for example, Ziegeler, G. et al. Journal of Biological Chemistry 2010, 285(20), 15408-19). The ternary complex assay, surrogate of eIF2α phosphorylation, has been described elsewhere (see, for example, Chen, T. et al. Nature Chemical Biology 2011, 7(9), 610-6). Briefly, the pBISA vector, which contains seven copies of the tetracycline-regulated transactivator response element (TRE), is flanked on both sides by minimal human cytomegalovirus (CMV) minimal promoters allowing bi-directional transcription and two MCSs (multiple cloning sites). Firefly and renilla luciferases were subcloned into MCS-I and MCS-II, respectively. This plasmid, designated pBISA-DL, transcribes two mRNAs that contain the 90 nucleotide plasmid derived 5′UTR (same sequence in both mRNAs), and the ORF encoding either firefly or renilla luciferase followed by a polyadenylation sequence. This plasmid was further modified by inserting the 5′UTR of ATF-4 mRNA into MCS-I in front of the firefly luciferase mRNA. Transcription from this unit generates an mRNA that contains the firefly luciferase ORF preceded by a 5′UTR composed of 90 nucleotides derived from the plasmid and 267 nucleotides derived from the 5′UTR of ATF-4 mRNA. Transcription from the other unit generates an mRNA that contains the renilla luciferase ORF proceeded only by the 90-nucleotide plasmid-derived sequence in the 5′UTR (pBISA-DL (ATF-4)) (see, for example, Chen, T. et al. Nature Chemical Biology 2011, 7(9), 610-6).
Cells expressing firefly and renilla luciferases were assayed with a dual glow luciferase assay kit, per manufacturer's instruction (Promega Inc., Madison, Wis.). The data calculations were carried out as the ratio of firefly to renilla luciferase signal.
A library of 1900 urea compounds was screened in the surrogate dual luciferase eIF2α phosphorylation (ternary complex) assay. This library was originally assembled and screened for inhibition of sEH by Hammock's group at UC-Davis (see, for example, Chen, T. et al. Nature Chem Biol 2011, 7, 610-616; Ziegeler, G et al. J Biol Chem 2010, 285, 15408-15419). We developed this assay in order to identify compounds that activate HRI, taking advantage of the fact that activated HRI phosphorylates eIF2α thereby reducing the amount of the eIF2•GTP•Met-tRNAi ternary complex that results in inhibition of translation of many mRNAs but paradoxically increases translation of some mRNAs that contain multiple upstream ORF (uORF) in their 5′ untranslated regions (UTRs). In our assay, firefly (F) luciferase mRNA is fused to 5′UTR of activating transcription factor 4 (ATF-4) mRNA that has multiple uORFs while renilla (R) luciferase mRNA is fused to a 5′UTR lacking any uORFs. Compounds that reduce the amount of the ternary complex, such as those activating HRI, would increase F luciferase expression while decreasing the R luciferase expression, resulting in an increased F/R luciferase ratio. To calculate the activity scores, the F/R ratios for every compound-treated wells were normalized to vehicle-treated (DMSO) wells that was arbitrarily set at 1 (F/R=1).

[2] = system: CRL-2813 human melanoma cancer cells; experiment: cell proliferation (SRB) assay, CRL-2813; assay type: cell-based; conditions: Homo sapiens, CRL2813
Protocol: (§1) Cells were seeded in 96-well plates and maintained for 5 days in the presence of 0.5 to 20 μM of individual compound, and cell proliferation was measured by the sulforhodamine B (SRB) assay as described previously (see, for example, Palakurthi, S. S. et al. Cancer Research 2000, 60(11), 2919-2925). Briefly, at the end of a 5-day treatment, cells were fixed in 10% cold trichloroacetic acid. Cell number was estimated by measuring the remaining bound dye of sulforhodamine B after washing. The percentage of growth was calculated by using the equation: 100×[(T−T0)/(C−T0)], where T and C represent the absorbance in treated and control cultures at Day 5, and T0 at time zero, respectively. If T is less than T0, cell death has occurred and can be calculated from 100×[(T−T0)/T0].

ASPC-1 = experiment: cell proliferation assay, ASPC-1; assay type: cell-based; conditions: Homo sapiens, ASPC1; SRB assay, Table 7; read-out: IC50 ASPC-1
Protocol: as §1
(§2) The compounds shown in Table 7 were evaluated using for activation of HRI using the dual luciferase surrogate eIF2α phosphorylation assay (see, for example, Chen, T. et al. Nature Chem Biol 2011, 7, 610-616) and for inhibition of cell proliferation using the SRB assay (see, for example, Palakurthi, S. S. et al. Cancer Res 2000, 60, 2919-2925) as described above.

Panc-1 = experiment: cell proliferation (SRB) assay, Panc-1; assay type: cell-based; conditions: Homo sapiens, Table 7
Protocol: as §1, §2

[3] = system: CRL-2813 human melanoma cancer cells transfected with HRI-targeting or non-targeting siRNA; experiment: cell proliferation (SRB) assay after HRI knockdown; assay type: cell-based; conditions: for fold higher IC50 values in cells transfected with HRI-targeting siRNA vs. non-targeting siRNA: CRL-2813 cells, FIG. 10; for dependence of inhibition of cell proliferation on HRI: HRI siRNA vs non-target siRNA, CRL-2813 (also MCF-7); for fold difference in resistance of cells to inhibition of cell proliferation upon HRI knockdown: average, CRL-2813, FIG. 8
Protocol: as §1
Cell proliferation is a meaningful read-out for determining the specificity of a compound as it captures both on-target and off-target effects of the compound under study. […] If these compounds specifically activate HRI and this activity is required for the inhibition of cell proliferation, then reducing the expression of HRI should blunt their effect on cell proliferation. For this purpose, expression of HRI was knocked down in CRL-2813 human melanoma (about 70% knockdown efficiency) and MCF-7 human breast cancer cells (about 90% knockdown efficiency). These two cell lines were chosen because the HRI knockdown efficiency is lower in CRL-2813 than in MCF-7 cells providing a sort of dose-response data that correlates knockdown efficiency with the resistance of cells to inhibition of cell proliferation. […] Referring to FIG. 5A, CRL-2813 human melanoma cancer cells, and (FIG. 5B) MCF-7 human breast cancer cells were transfected with HRI targeted or non-targeted siRNA, treated with the indicated concentrations of I-6p and cell proliferation was measured by SRB assay. Calculated IC50 for all four compounds tested in CRL-2813 human melanoma cancer cells and MCF-7 human breast cancer cells transfected with non-target siRNA control (NTC) or HRI is shown in FIG. 5C and FIG. 5D, respectively. The experiment was conducted in triplicate and each experiment was independently performed three times. Data are shown as Mean±S.E.M. *NTC=non-target siRNA control.
Referring to FIG. 8, CRL-2813 human melanoma cancer cells were transfected with HRI targeted or non-targeted siRNA, treated with the indicated concentrations of (A) I-14, (B) I-15, (C) III-4 and (D) III-5 and cell proliferation was measured by SRB assay. Calculated IC50 for all four compounds tested in CRL-2813 human melanoma cancer cells transfected with non-target siRNA control (NTC) or HRI is shown in (E). The experiment was conducted in triplicate and each experiment was independently performed three times. Data are shown as Mean±S.E.M. *NTC=non-target siRNA control, IC50=effective dose of drug that inhibit cell proliferation by 50%.
In general, if the affinity of compounds for their molecular target is increased this should result in higher specificity of the compounds in the cell proliferation assay. […] These five compounds, two with average and three with high potency, were tested in cell proliferation assay using CRL-2813 cells transfected with non-targeted siRNA or HRI-targeted siRNA as described above.

[4] = DMSO = 1, maximum tested concentration 20 μM, read-out: Emax: Maximum activity of compound expressed as fold over vehicle
[5] = SRB assay, Table 7, read-out: IC50 CRL-2813
[6] = surrogate eIF2α phosphorylation assay, Table 3, read-out: Emax (F/R)
[7] = cell proliferation assay, Table 3, cell line not named, values equal CRL-2813 values of Table 8, read-out: IC50
[8] = surrogate eIF2α phosphorylation assay, Table 4, read-out: Emax (F/R)
[9] = cell proliferation assay, Table 4, cell line not named, read-out: IC50

IC50 [2, 5] [nM] | IC50 (ASPC-1) [nM] | IC50 (Panc-1) [nM] | IC50 [2, 7] [nM] | fold higher IC50 values in cells transfected with HRI-targeting siRNA vs. non-targeting siRNA [3] [fold] | IC50 [2, 9] [nM] | Compound | maximal fold induction [1, 4] | C3X: Calculated concentration of compound that will cause three-fold increase in the surrogate eIF2α phosphorylation assay [1] [µM] | maximal fold induction [1, 6] | dependence of inhibition of cell proliferation on HRI [3] | fold difference in resistance of cells to inhibition of cell proliferation upon HRI knockdown [3] [fold] | maximal fold induction [1, 8]
1400 | 3200 | 1900 | – | – | – | NC(=O)c1cc(C(F)(F)F)ccc1O[C@H]1CC[C@H](NC(=O)Nc2cccc(OC(F)(F)F)c2)CC1 | 6 | 8 | – | – | – | –
3000 | 2900 | 3000 | – | – | – | NC(=O)c1cc(O[C@H]2CC[C@H](NC(=O)Nc3cccc(OC(F)(F)F)c3)CC2)ccc1C(F)(F)F | 5 | 14 | – | – | – | –
900 | 1000 | 1500 | – | – | – | O=C(Nc1cccc(OC(F)(F)F)c1)N[C@H]1CC[C@H](Oc2ccc(C(F)(F)F)cc2)CC1 | 28 | 0.2 | – | – | – | –
1700 | 2800 | 2500 | – | – | – | CC(=O)Nc1cc(C(F)(F)F)ccc1O[C@H]1CC[C@H](NC(=O)Nc2cccc(OC(F)(F)F)c2)CC1 | 5 | 4 | – | – | – | –
1900 | 2600 | 1700 | – | – | – | CC(=O)Nc1cc(C(F)(F)F)ccc1O[C@H]1CC[C@H](NC(=O)Nc2cccc(C(F)(F)F)c2)CC1 | 4.2 | 3.5 | – | – | – | –
150 | – | 700 | – | – | – | O=C(Nc1cc(C(F)(F)F)cc(C(F)(F)F)c1)N[C@H]1CC[C@H](Oc2ccc(C(F)(F)F)cc2)CC1 | 38 | 0.15 | – | – | – | –
800 | – | 2500 | – | – | – | N#Cc1cccc(NC(=O)N[C@H]2CC[C@H](Oc3ccc(C(F)(F)F)cc3)CC2)c1 | 10 | 2 | – | – | – | –
900 | – | 2000 | – | – | – | N#Cc1ccc(NC(=O)N[C@H]2CC[C@H](Oc3ccc(C(F)(F)F)cc3)CC2)cc1 | 9 | 0.6 | – | – | – | –
1500 | – | 2800 | – | – | – | O=C(Nc1cccc(C(F)(F)F)c1)N[C@H]1CC[C@H](Oc2ccc(C(F)(F)F)cn2)CC1 | 6 | 3.5 | – | – | – | –
1300 | – | 1800 | – | – | – | N#Cc1cc(C(F)(F)F)ccc1O[C@H]1CC[C@H](NC(=O)Nc2cccc(C(F)(F)F)c2)CC1 | 8 | 2.5 | – | – | – | –
4000 | – | 3000 | – | – | – | N#Cc1ccc(O[C@H]2CC[C@H](NC(=O)Nc3cccc(C(F)(F)F)c3)CC2)cc1 | 4 | 5 | – | – | – | –
2100 | – | 3000 | – | – | – | O=C(Nc1cccc(C(F)(F)F)c1)N[C@H]1CC[C@H](Oc2ccc(F)cc2)CC1 | 11 | 2.5 | – | – | – | –
– | – | – | 2450 ± 900 | ~7 | – | O=C(Nc1cccc(C(F)(F)F)c1)NC1CCC(Oc2ccccc2F)CC1 (stereo not drawn) [Compound I-14, 1-(4-(2-Fluorophenoxy)cyclohexyl)-3-(3-(trifluoromethyl)phenyl)urea] | – | – | 7.98 | dependent on HRI | ~8 | –
– | – | – | 2400 ± 600 | ~7 | – | O=C(Nc1cccc(C(F)(F)F)c1)NC1CCC(Oc2cccc(F)c2)CC1 (stereo not drawn) [Compound I-15, 1-(4-(3-Fluorophenoxy)cyclohexyl)-3-(3-(trifluoromethyl)phenyl)urea] | – | – | 7.23 | dependent on HRI | ~8 | –
– | – | – | – | – | 2650 ± 800 | O=C(Nc1cccc(C(F)(F)F)c1)NC1CCC(OCc2ccc(F)cc2)CC1 (stereo not drawn) [III-4, 1-(4-((4-Fluorobenzyl)oxy)cyclohexyl)-3-(3-(trifluoromethyl)phenyl)urea] | – | – | – | dependent on HRI | – | 9.58
– | – | – | – | – | 3100 ± 1100 | O=C(Nc1cccc(C(F)(F)F)c1)NC1CCCCC1Oc1ccc(C(F)(F)F)cc1 (stereo not drawn) [III-5, 1-(2-(4-(Trifluoromethyl)phenoxy)cyclohexyl)-3-(3-(trifluoromethyl)phenyl)urea] | – | – | – | dependent on HRI | – | 5.89
